Data: US9657014B2, “Substituted 1,6-naphthyridines” (Hoffmann-La Roche Inc., priority 2012, dated 2017)

tested on: human embryonic stem cell derived neural stem cells (NSCs); assay: Neural stem cell proliferation assay (neurogenesis assay); assay type: cell-based; conditions: Homo sapiens, Neural stem cell, 96 h; Table 1, novel compounds; concentration at which 150% activity of control (100%) is reached; ATP levels (CellTiterGlo) after 4 days incubation
In short: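 NSCs derived from human ES cells by dual SMAD inhibition, seeded on polyornithin/laminin, dosed 4 h later (11 points, 8 μM to 8 nM). After 4 days at 37° C, ATP luminescence read; response = compound/medium control ×100, EC150 = concentration giving 150% of control.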

Point of comparison: `CC(C)(C)CNC(=O)c1ccc2cncc(-c3cccc(F)c3)c2n1` [Example 119, 8-(3-Fluorophenyl)-N-neopentyl-1,6-naphthyridine-2-carboxamide], EC (150% of control) 0.27 µM. Against it:
- CC(NC(=O)c1ccc2cncc(-c3ccc(F)cc3)c2n1)c1ccc(S(C)(=O)=O)cc1 (stereo not shown) [Example 107, 8-(4-Fluorophenyl)-N-(1-(4-(methylsulfonyl)phenyl)ethyl)-1,6-naphthyridine-2-carboxamide] — 2.7-fold lower, 0.1 µM
- CC(NC(=O)c1ccc2cncc(-c3ccccc3F)c2n1)c1ccc(S(C)(=O)=O)cc1 (stereo not shown) [Example 108, 8-(2-Fluorophenyl)-N-(1-(4-(methylsulfonyl)phenyl)ethyl)-1,6-naphthyridine-2-carboxamide] — 1.9-fold higher, 0.5 µM
- CC(NC(=O)c1ccc2cncc(-c3cccc(F)c3)c2n1)c1ccc(S(C)(=O)=O)cc1 (stereo not shown) [Example 109, 8-(3-Fluorophenyl)-N-(1-(4-(methylsulfonyl)phenyl)ethyl)-1,6-naphthyridine-2-carboxamide] — 16-fold higher, 4.2 µM
- CC(NC(=O)c1ccc2cncc(-c3ccc(F)cc3F)c2n1)c1ccc(S(C)(=O)=O)cc1 (stereo not shown) [Example 110, 8-(2,4-Difluorophenyl)-N-(1-(4-(methylsulfonyl)phenyl)ethyl)-1,6-naphthyridine-2-carboxamide] — 1.8-fold higher, 0.49 µM
- CC(NC(=O)c1ccc2cncc(-c3ccc(F)c(F)c3)c2n1)c1ccc(S(C)(=O)=O)cc1 (stereo not shown) [Example 111, 8-(3,4-Difluorophenyl)-N-(1-(4-(methylsulfonyl)phenyl)ethyl)-1,6-naphthyridine-2-carboxamide] — within 1.5-fold, 0.3 µM
- CS(=O)(=O)c1ccc(CNC(=O)c2ccc3cncc(-c4ccccc4F)c3n2)cc1 [Example 112, 8-(2-Fluorophenyl)-N-(4-(methylsulfonyl)benzyl)-1,6-naphthyridine-2-carboxamide] — within 1.5-fold, 0.25 µM
- CS(=O)(=O)c1ccc(CNC(=O)c2ccc3cncc(-c4cccc(F)c4)c3n2)cc1 [Example 113, 8-(3-Fluorophenyl)-N-(4-(methylsulfonyl)benzyl)-1,6-naphthyridine-2-carboxamide] — 1.6-fold lower, 0.17 µM
- CS(=O)(=O)c1ccc(CNC(=O)c2ccc3cncc(-c4ccc(F)cc4F)c3n2)cc1 [Example 114, 8-(2,4-Difluorophenyl)-N-(4-(methylsulfonyl)benzyl)-1,6-naphthyridine-2-carboxamide] — 1.9-fold higher, 0.51 µM
- CS(=O)(=O)c1ccc(CNC(=O)c2ccc3cncc(-c4ccc(F)c(F)c4)c3n2)cc1 [Example 115, 8-(3,4-Difluorophenyl)-N-(4-(methylsulfonyl)benzyl)-1,6-naphthyridine-2-carboxamide] — 7.2-fold higher, 1.95 µM
- CS(=O)(=O)c1ccc(CNC(=O)c2ccc3cncc(-c4cc(F)ccc4F)c3n2)cc1 [Example 116, 8-(2,5-Difluorophenyl)-N-(4-(methylsulfonyl)benzyl)-1,6-naphthyridine-2-carboxamide] — 6.1-fold higher, 1.65 µM
- CC(C)(C)CNC(=O)c1ccc2cncc(-c3ccc(F)cc3)c2n1 [Example 117, 8-(4-Fluorophenyl)-N-neopentyl-1,6-naphthyridine-2-carboxamide] — 3.9-fold lower, 0.07 µM
- CC(C)(C)CNC(=O)c1ccc2cncc(-c3ccccc3F)c2n1 [Example 118, 8-(2-Fluorophenyl)-N-neopentyl-1,6-naphthyridine-2-carboxamide] — 6.8-fold lower, 0.04 µM
- CC(C)(C)CNC(=O)c1ccc2cncc(-c3ccc(F)cc3F)c2n1 [Example 120, 8-(2,4-Difluorophenyl)-N-neopentyl-1,6-naphthyridine-2-carboxamide] — 3.4-fold lower, 0.08 µM
- CC(C)(C)CNC(=O)c1ccc2cncc(-c3ccc(F)c(F)c3)c2n1 [Example 121, 8-(3,4-Difluorophenyl)-N-neopentyl-1,6-naphthyridine-2-carboxamide] — within 1.5-fold, 0.26 µM
- CC(C)(C)CNC(=O)c1ccc2cncc(-c3cc(F)ccc3F)c2n1 [Example 122, 8-(2,5-Difluorophenyl)-N-neopentyl-1,6-naphthyridine-2-carboxamide] — 2.3-fold lower, 0.12 µM
